Data from patent US9771343B2, “2-alkyl-or-aryl-substituted tanshinone derivatives, and preparation method and application thereof” (Hangzhou Bensheng Pharmaceutical Co., Ltd., priority 2011, dated 2017).
≈ marks a conversion by molar mass, not a printed value.

Tests used:
A549 (human lung cancer) = experiment: MTT cell growth inhibition, A549 cells, 72 h; assay type: cell-based; details: Homo sapiens, A549, 72 h
Description: (§1) The standard sample of tanshinone I (TA) and the 2-alkyl- or 2-aromatic-substituted tanshinone I derivatives of the present invention are sufficiently dissolved in dimethylsulfoxide to produce a stock solution of 10 mg/mL, which is refrigerated at 4° C. and stored in dark, and is diluted with a cell culture medium to the desired concentration prior to experimentation.
(§2) Obtaining 6000 well-growing human solid tumor cells and inoculating them into wells of a 96-well cell culture plate. The culture medium is DMEM High Glucose cell culture medium containing 10% fetal bovine serum. The plate is placed in a carbon dioxide cell incubator (5% CO2) at 37° C. and incubated for 24 hours. After adding the 2-alkyl- or 2-aromatic-substituted tanshinone I derivatives of different concentrations and mixing uniformly, the plate is placed in a carbon dioxide cell incubator (5% CO2) at 37° C. and incubated for 72 hours. Then the viable cell concentration is determined by MTT method. In this experiment, the cell viability in control group (not treated with any compound) is set as 100%, and the cell viability (%) after treatment by the compounds and the half maximum inhibitory concentration for the leukemia cell at 72 hours (IC50 value of 72 hours, μg/mL) are calculated.

[1] = system: MGC 803 (human gastric cancer cell); experiment: MTT cell growth inhibition, MGC 803 cells, 72 h; assay type: cell-based
Description: as §1, §2

[2] = system: CaES-17 (esophageal cancer cell); experiment: MTT cell growth inhibition, CaES-17 cells, 72 h; assay type: cell-based, human; details: Homo sapiens, CaEs17, CaEs-17, 72 h
Description: as §1, §2

[3] = system: K562/adr (drug-resistant, chronic myeloid leukemia, CML); experiment: MTT cell growth inhibition, K562/adr leukemia cells, 72 h; assay type: cell-based; details: Homo sapiens, K562/Adr
Description: (§3) The standard sample of tanshinone I (TA) and the 2-alkyl- or 2-aromatic-substituted tanshinone I derivatives of the present invention are sufficiently dissolved in dimethylsulfoxide to produce a stock solution of 10 mg/mL, which is refrigerated at 4° C. and stored in dark, and is diluted with cell culture medium to a desired concentration prior to experimentation.
as §2, with “leukemia” for “human solid tumor”, “the RPMI-1640” for “DMEM High Glucose”, “serum.” for “serum. The plate is placed in a carbon dioxide cell incubator (5% CO2) at 37° C. and incubated for 24 hours.”, “adding on the second day” for “adding”, “uniformly, placing” for “uniformly,”, “plate” for “plate is placed”

[4] = system: NB4 (acute promyelocytic leukemia, AML); experiment: MTT cell growth inhibition, NB4 leukemia cells, 72 h; assay type: cell-based
Description: as §3
as §2, with “leukemia” for “human solid tumor”, “the RPMI-1640” for “DMEM High Glucose”, “serum.” for “serum. The plate is placed in a carbon dioxide cell incubator (5% CO2) at 37° C. and incubated for 24 hours.”, “adding on the second day” for “adding”, “uniformly, placing” for “uniformly,”, “plate” for “plate is placed”

[5] = system: RKO (human colon adenocarcinoma cell); experiment: MTT cell growth inhibition, RKO cells, 72 h; assay type: cell-based
Description: as §1, §2

MG63 (osteosarcoma) = experiment: MTT cell growth inhibition, MG63 cells, 72 h; assay type: cell-based, human; details: Homo sapiens, MG-63, 72 h
Description: as §1, §2

[6] = system: PANC-1 (pancreatic cancer); experiment: MTT cell growth inhibition, PANC-1 cells, 72 h; assay type: cell-based, human; details: Homo sapiens, PANC-1, 72 h
Description: as §1, §2

[7] = system: RPMI8226 (multiple myeloma); experiment: MTT cell growth inhibition, RPMI8226 multiple myeloma cells, 72 h; assay type: cell-based, human; details: Homo sapiens, RPMI 8226, 72 h
Description: as §3
as §2, with “leukemia” for “human solid tumor”, “the RPMI-1640” for “DMEM High Glucose”, “serum.” for “serum. The plate is placed in a carbon dioxide cell incubator (5% CO2) at 37° C. and incubated for 24 hours.”, “adding on the second day” for “adding”, “uniformly, placing” for “uniformly,”, “plate” for “plate is placed”

[8] = system: Hep G2 (human liver cancer cell); experiment: MTT cell growth inhibition, Hep G2 cells, 72 h; assay type: cell-based
Description: as §1, §2

[9] = system: SK-OV-3 (ovarian cancer cell); experiment: MTT cell growth inhibition, SK-OV-3 cells, 72 h; assay type: cell-based, human
Description: as §1, §2

[10] = system: Kasumi-1 (acute myeloid leukemia M2 type, AML-M2); experiment: MTT cell growth inhibition, Kasumi-1 leukemia cells, 72 h; assay type: cell-based; details: Homo sapiens, Kasumi-1, 72 h
Description: as §3
as §2, with “leukemia” for “human solid tumor”, “the RPMI-1640” for “DMEM High Glucose”, “serum.” for “serum. The plate is placed in a carbon dioxide cell incubator (5% CO2) at 37° C. and incubated for 24 hours.”, “adding on the second day” for “adding”, “uniformly, placing” for “uniformly,”, “plate” for “plate is placed”

[11] = system: Jurkat (acute lymphoblastic leukemia, ALL); experiment: MTT cell growth inhibition, Jurkat leukemia cells, 72 h; assay type: cell-based; details: Homo sapiens, 72 h
Description: as §3
as §2, with “leukemia” for “human solid tumor”, “the RPMI-1640” for “DMEM High Glucose”, “serum.” for “serum. The plate is placed in a carbon dioxide cell incubator (5% CO2) at 37° C. and incubated for 24 hours.”, “adding on the second day” for “adding”, “uniformly, placing” for “uniformly,”, “plate” for “plate is placed”

PC-3 (prostate cancer) = experiment: MTT cell growth inhibition, PC-3 cells, 72 h; assay type: cell-based, human
Description: as §1, §2

[12] = system: Hela (human cervical cancer cell); experiment: MTT cell growth inhibition, Hela cells, 72 h; assay type: cell-based
Description: as §1, §2

[13] = system: Becap37 (human breast cancer cell); experiment: MTT cell growth inhibition, Becap37 cells, 72 h; assay type: cell-based
Description: as §1, §2

[14] = system: Hep-2 (laryngeal carcinoma); experiment: MTT cell growth inhibition, Hep-2 cells, 72 h; assay type: cell-based, human; details: Homo sapiens, HEp-2, 72 h
Description: as §1, §2

[15] = system: CNE (nasopharyngeal carcinoma cell); experiment: MTT cell growth inhibition, CNE cells, 72 h; assay type: cell-based, human; details: Homo sapiens, CNE, 72 h
Description: as §1, §2

[16] = system: H9 (acute lymphoblastic leukemia, ALL); experiment: MTT cell growth inhibition, H9 leukemia cells, 72 h; assay type: cell-based
Description: as §3
as §2, with “leukemia” for “human solid tumor”, “the RPMI-1640” for “DMEM High Glucose”, “serum.” for “serum. The plate is placed in a carbon dioxide cell incubator (5% CO2) at 37° C. and incubated for 24 hours.”, “adding on the second day” for “adding”, “uniformly, placing” for “uniformly,”, “plate” for “plate is placed”

[17] = system: U87 MG (malignant glioma cell); experiment: MTT cell growth inhibition, U87 MG cells, 72 h; assay type: cell-based, human
Description: as §1, §2

Compound: Cc1c(-c2ccc(C(=O)O)cc2)oc2c1C(=O)C(=O)c1c-2ccc2c(C)cccc12 [BS-TA-302]
- IC50 (A549 (human lung cancer); read-out: IC50): 16.6 µg/mL (≈ 41.9 µM)
- IC90 (A549 (human lung cancer); read-out: IC90): > 16 µg/mL
- IC50 ([1]; Homo sapiens, MGC-803, 72 h, read-out: IC50): 0.38 µg/mL (≈ 0.959 µM)
- IC90 ([1]; Homo sapiens, MGC-803, 72 h, read-out: IC90): 3.3 µg/mL (≈ 8.32 µM)
- anti-MGC 803 activity (in words) ([1]; Table 2): significantly improves
- IC50 ([2]; read-out: IC50): 6.83 µg/mL (≈ 17.2 µM)
- IC90 ([2]; read-out: IC90): > 16 µg/mL
- IC50 ([3]; read-out: IC50): 1.08 µg/mL (≈ 2.72 µM)
- IC90 ([3]; read-out: IC90): 3.6 µg/mL (≈ 9.08 µM)
- IC50 ([4]; NB4, 72 h, read-out: IC50): 0.2 µg/mL (≈ 0.505 µM)
- IC90 ([4]; NB4, 72 h, read-out: IC90): 1 µg/mL (≈ 2.52 µM)
- improvement of anti-NB4 activity as compared with tanshinone I per se ([4]; NB4, vs tanshinone I): ~5 fold
- IC50 ([5]; Homo sapiens, RKO, 72 h, read-out: IC50): 1.53 µg/mL (≈ 3.86 µM)
- IC90 ([5]; Homo sapiens, RKO, 72 h, read-out: IC90): > 16 µg/mL
- anti-RKO activity (in words) ([5]; Table 2): superior to that of tanshinone I per se
- IC50 (MG63 (osteosarcoma); read-out: IC50): 1.05 µg/mL (≈ 2.65 µM)
- IC90 (MG63 (osteosarcoma); read-out: IC90): > 16 µg/mL
- IC50 ([6]; read-out: IC50): 5.48 µg/mL (≈ 13.8 µM)
- IC90 ([6]; read-out: IC90): > 16 µg/mL
- IC50 ([7]; read-out: IC50): 1 µg/mL (≈ 2.52 µM)
- IC90 ([7]; read-out: IC90): 16.6 µg/mL (≈ 41.8 µM)
- IC50 ([8]; Homo sapiens, HepG2, Hep G2, 72 h, read-out: IC50): 1.94 µg/mL (≈ 4.89 µM)
- IC90 ([8]; Homo sapiens, HepG2, Hep G2, 72 h, read-out: IC90): > 16 µg/mL
- anti-Hep G2 activity (in words) ([8]; Table 2): superior to that of tanshinone I per se
- IC50 ([9]; Homo sapiens, SK-OV-3, 72 h, read-out: IC50): 11.1 µg/mL (≈ 28 µM)
- IC90 ([9]; Homo sapiens, SK-OV-3, 72 h, read-out: IC90): > 16 µg/mL
- anti-SK-OV-3 activity (in words) ([9]; Table 2): superior to that of tanshinone I per se
- IC50 ([10]; read-out: IC50): 3.85 µg/mL (≈ 9.71 µM)
- IC90 ([10]; read-out: IC90): 17.5 µg/mL (≈ 44.1 µM)
- IC50 ([11]; read-out: IC50): 0.84 µg/mL (≈ 2.12 µM)
- IC90 ([11]; read-out: IC90): > 16 µg/mL
- IC50 (PC-3 (prostate cancer); Homo sapiens, PC-3, 72 h, read-out: IC50): 6.49 µg/mL (≈ 16.4 µM)
- IC90 (PC-3 (prostate cancer); Homo sapiens, PC-3, 72 h, read-out: IC90): > 16 µg/mL
- anti-PC-3 activity (in words) (PC-3 (prostate cancer); Table 2): significantly improves
- IC50 ([12]; Homo sapiens, HeLa, 72 h, read-out: IC50): 0.5 µg/mL (≈ 1.26 µM)
- IC90 ([12]; Homo sapiens, HeLa, 72 h, read-out: IC90): 16 µg/mL (≈ 40.4 µM)
- anti-Hela activity (in words) ([12]; Table 2): superior to that of tanshinone I per se
- IC50 ([13]; Homo sapiens, Becap-37, 72 h, read-out: IC50): 1.28 µg/mL (≈ 3.23 µM)
- IC90 ([13]; Homo sapiens, Becap-37, 72 h, read-out: IC90): > 16 µg/mL
- anti-Becap37 activity (in words) ([13]; Table 2): superior to that of tanshinone I per se
- IC50 ([14]; read-out: IC50): 8 µg/mL (≈ 20.2 µM)
- IC90 ([14]; read-out: IC90): > 16 µg/mL
- IC50 ([15]; read-out: IC50): 15 µg/mL (≈ 37.8 µM)
- IC90 ([15]; read-out: IC90): > 16 µg/mL
- IC50 ([16]; H9, 72 h, read-out: IC50): 0.7 µg/mL (≈ 1.77 µM)
- IC90 ([16]; H9, 72 h, read-out: IC90): 1.98 µg/mL (≈ 4.99 µM)
- improvement of anti-H9 activity as compared with tanshinone I per se ([16]; H9, vs tanshinone I): ~5 fold
- IC50 ([17]; Homo sapiens, U-87 MG, U87-MG, 72 h, read-out: IC50): 0.5 µg/mL (≈ 1.26 µM)
- IC90 ([17]; Homo sapiens, U-87 MG, U87-MG, 72 h, read-out: IC90): > 16 µg/mL
- anti-U87 MG activity (in words) ([17]; Table 2): superior to that of tanshinone I per se
